Test results reported in article PMC11392244, “Characterization of a unique catechol-O-methyltransferase as a molecular drug target in parasitic filarial nematodes” (PLOS Neglected Tropical Diseases, 2024).
Where “and” joins values, the source holds several entries; their conditions need not be identical. Identical values can stand only once. Like-named read-outs stand apart in the source and are kept apart here.

Tests used:
DiMT protein = type: biochemical, Dirofilaria immitis; conditions: for IC50: read-out: IC 50 (μM ± SEM)
D. immitis microfilariae = assay: In vitro efficacy against live D. immitis microfilariae (motility, completely immotile %); type: cell-based, Dirofilaria immitis; conditions: for Completely Immotile Microfilariae (%): single replicate; for effect on microfilariae: up to 120 h of culture

CO[C@@H]1[C@@H](OC(=O)c2ccc(C)[nH]2)[C@@H](O)[C@H](Oc2ccc3c(O)c(NC(=O)c4ccc(O)c(CC=C(C)C)c4)c(=O)oc3c2Cl)OC1(C)C [NSC227186]
Mean Percent Inhibition (DiMT protein; 10 µM): 25.0% and 23.9% and 30.2%
Mean Percent Inhibition, Average (DiMT protein; 10 µM): 26.4%
Mean Percent Inhibition (DiMT protein; 40 µM): 40.1% and 37.1% and 38.3%
Mean Percent Inhibition, Average (DiMT protein; 40 µM): 38.5%
Mean Percent Inhibition (DiMT protein; 70 µM): 40.5% and 43.1% and 39.6%
Mean Percent Inhibition, Average (DiMT protein; 70 µM): 41.1%
Mean Percent Inhibition (DiMT protein; 100 µM): 44.8% and 43.5% and 45.8%
Mean Percent Inhibition, Average (DiMT protein; 100 µM): 44.7%
Mean Percent Inhibition (DiMT protein; 130 µM): 46.6% and 49.3% and 48.1%
Mean Percent Inhibition, Average (DiMT protein; 130 µM): 48.0%
Mean Percent Inhibition (DiMT protein; 160 µM): 50.6% and 48.4% and 57.2%
Mean Percent Inhibition, Average (DiMT protein; 160 µM): 52.0%

O=c1c(O)cccc2cc(O)c(O)c(O)c12 [NSC35676]
Mean completely Immotile (%) (D. immitis microfilariae; 25 µM, 0 h): 0%
Completely Immotile Microfilariae (%) (D. immitis microfilariae; 25 µM, 0 h): 0%
Mean completely Immotile (%) (D. immitis microfilariae; 25 µM, 24 h): 1%
Completely Immotile Microfilariae (%) (D. immitis microfilariae; 25 µM, 24 h): 0% and 1% and 2%
Mean completely Immotile (%) (D. immitis microfilariae; 25 µM, 48 h): 3%
Completely Immotile Microfilariae (%) (D. immitis microfilariae; 25 µM, 48 h): 2% and 3% and 4%
Mean completely Immotile (%) (D. immitis microfilariae; 25 µM, 72 h): 4.33%
Completely Immotile Microfilariae (%) (D. immitis microfilariae; 25 µM, 72 h): 4% and 3% and 6%
Mean completely Immotile (%) (D. immitis microfilariae; 25 µM, 96 h): 5.67%
Completely Immotile Microfilariae (%) (D. immitis microfilariae; 25 µM, 96 h): 5% and 4% and 8%
Mean completely Immotile (%) (D. immitis microfilariae; 25 µM, 120 h): 9.33%
Completely Immotile Microfilariae (%) (D. immitis microfilariae; 25 µM, 120 h): 7% and 6% and 15%
Mean completely Immotile (%) (D. immitis microfilariae; 75 µM, 0 h): 0%
Completely Immotile Microfilariae (%) (D. immitis microfilariae; 75 µM, 0 h): 0%
Mean completely Immotile (%) (D. immitis microfilariae; 75 µM, 24 h): 2.33%
Completely Immotile Microfilariae (%) (D. immitis microfilariae; 75 µM, 24 h): 1% (2×) and 5%
Mean completely Immotile (%) (D. immitis microfilariae; 75 µM, 48 h): 4.33%
Completely Immotile Microfilariae (%) (D. immitis microfilariae; 75 µM, 48 h): 4% and 3% and 6%
Mean completely Immotile (%) (D. immitis microfilariae; 75 µM, 72 h): 9%
Completely Immotile Microfilariae (%) (D. immitis microfilariae; 75 µM, 72 h): 10% and 8% and 9%
Mean completely Immotile (%) (D. immitis microfilariae; 75 µM, 96 h): 12%
Completely Immotile Microfilariae (%) (D. immitis microfilariae; 75 µM, 96 h): 12% and 11% and 13%
Mean completely Immotile (%) (D. immitis microfilariae; 75 µM, 120 h): 15.67%
Completely Immotile Microfilariae (%) (D. immitis microfilariae; 75 µM, 120 h): 15% and 13% and 19%
Mean completely Immotile (%) (D. immitis microfilariae; 125 µM, 0 h): 0%
Completely Immotile Microfilariae (%) (D. immitis microfilariae; 125 µM, 0 h): 0%
Mean completely Immotile (%) (D. immitis microfilariae; 125 µM, 24 h): 4.33%
Completely Immotile Microfilariae (%) (D. immitis microfilariae; 125 µM, 24 h): 3% and 4% and 6%
Mean completely Immotile (%) (D. immitis microfilariae; 125 µM, 48 h): 6%
Completely Immotile Microfilariae (%) (D. immitis microfilariae; 125 µM, 48 h): 5% and 4% and 9%
Mean completely Immotile (%) (D. immitis microfilariae; 125 µM, 72 h): 12.33%
Completely Immotile Microfilariae (%) (D. immitis microfilariae; 125 µM, 72 h): 12% and 10% and 15%
Mean completely Immotile (%) (D. immitis microfilariae; 125 µM, 96 h): 20.33%
Completely Immotile Microfilariae (%) (D. immitis microfilariae; 125 µM, 96 h): 16% and 15% and 30%
Mean completely Immotile (%) (D. immitis microfilariae; 125 µM, 120 h): 18.67%
Completely Immotile Microfilariae (%) (D. immitis microfilariae; 125 µM, 120 h): 19% and 15% and 22%
Mean completely Immotile (%) (D. immitis microfilariae; 200 µM, 0 h): 0%
Completely Immotile Microfilariae (%) (D. immitis microfilariae; 200 µM, 0 h): 0%
Mean completely Immotile (%) (D. immitis microfilariae; 200 µM, 24 h): 5%
Completely Immotile Microfilariae (%) (D. immitis microfilariae; 200 µM, 24 h): 5% and 4% and 6%
Mean completely Immotile (%) (D. immitis microfilariae; 200 µM, 48 h): 7.33%
Completely Immotile Microfilariae (%) (D. immitis microfilariae; 200 µM, 48 h): 5% and 6% and 11%
Mean completely Immotile (%) (D. immitis microfilariae; 200 µM, 72 h): 13.33%
Completely Immotile Microfilariae (%) (D. immitis microfilariae; 200 µM, 72 h): 15% and 13% and 12%
Mean completely Immotile (%) (D. immitis microfilariae; 200 µM, 96 h): 18.67%
Completely Immotile Microfilariae (%) (D. immitis microfilariae; 200 µM, 96 h): 20% and 19% and 17%
Mean completely Immotile (%) (D. immitis microfilariae; 200 µM, 120 h): 23%
Completely Immotile Microfilariae (%) (D. immitis microfilariae; 200 µM, 120 h): 23% and 22% and 24%
effect on microfilariae (D. immitis microfilariae): insignificant effect
Mean Percent Inhibition (single experiments) (DiMT protein; 15 µM): 41.9 and 44.3 and 44.1
Mean Percent Inhibition, Average (DiMT protein; 15 µM): 43.4
Mean Percent Inhibition (single experiments) (DiMT protein; 25 µM): 45.9 and 51.6 and 47.0
Mean Percent Inhibition, Average (DiMT protein; 25 µM): 48.2
Mean Percent Inhibition (single experiments) (DiMT protein; 50 µM): 62.0 and 58.4 and 60.6
Mean Percent Inhibition, Average (DiMT protein; 50 µM): 60.4
Mean Percent Inhibition (single experiments) (DiMT protein; 75 µM): 63.8 and 67.9 and 65.4
Mean Percent Inhibition, Average (DiMT protein; 75 µM): 65.7
Mean Percent Inhibition (single experiments) (DiMT protein; 100 µM): 68.1 and 72.1 and 71.2
Mean Percent Inhibition, Average (DiMT protein; 100 µM): 70.5
IC50 (DiMT protein): 25.2 ± 1.4 µM

COc1cc(C)c2c(c1C=O)Oc1c(c(C)c(O)c3c1C(O)OC3=O)OC2=O (centres unmarked) [NSC87511]
effect on microfilariae (D. immitis microfilariae): insignificant effect
IC50 (DiMT protein): 155 ± 2.2 µM

COc1ccc(-c2c(C)c(C(=O)O)nc(-c3ccc4c(O)c(OC)c5c(c4n3)=NC(C)(C)N=5)c2N)c(O)c1OC [NSC62709]
Mean completely Immotile (%) (D. immitis microfilariae; 50 µM, 0 h): 0%
Completely Immotile Microfilariae (%) (D. immitis microfilariae; 50 µM, 0 h): 0%
Mean completely Immotile (%) (D. immitis microfilariae; 50 µM, 24 h): 1.67%
Completely Immotile Microfilariae (%) (D. immitis microfilariae; 50 µM, 24 h): 1% and 2% (2×)
Mean completely Immotile (%) (D. immitis microfilariae; 50 µM, 48 h): 3.33%
Completely Immotile Microfilariae (%) (D. immitis microfilariae; 50 µM, 48 h): 3% (2×) and 4%
Mean completely Immotile (%) (D. immitis microfilariae; 50 µM, 72 h): 5.67%
Completely Immotile Microfilariae (%) (D. immitis microfilariae; 50 µM, 72 h): 5% (2×) and 7%
Mean completely Immotile (%) (D. immitis microfilariae; 50 µM, 96 h): 7.33%
Completely Immotile Microfilariae (%) (D. immitis microfilariae; 50 µM, 96 h): 7% and 9% and 6%
Mean completely Immotile (%) (D. immitis microfilariae; 50 µM, 120 h): 14%
Completely Immotile Microfilariae (%) (D. immitis microfilariae; 50 µM, 120 h): 12% and 14% and 16%
Mean completely Immotile (%) (D. immitis microfilariae; 100 µM, 0 h): 0%
Completely Immotile Microfilariae (%) (D. immitis microfilariae; 100 µM, 0 h): 0%
Mean completely Immotile (%) (D. immitis microfilariae; 100 µM, 24 h): 3.67%
Completely Immotile Microfilariae (%) (D. immitis microfilariae; 100 µM, 24 h): 3% (2×) and 5%
Mean completely Immotile (%) (D. immitis microfilariae; 100 µM, 48 h): 7%
Completely Immotile Microfilariae (%) (D. immitis microfilariae; 100 µM, 48 h): 7% and 6% and 8%
Mean completely Immotile (%) (D. immitis microfilariae; 100 µM, 72 h): 9.33%
Completely Immotile Microfilariae (%) (D. immitis microfilariae; 100 µM, 72 h): 9% (2×) and 10%
Mean completely Immotile (%) (D. immitis microfilariae; 100 µM, 96 h): 12.33%
Completely Immotile Microfilariae (%) (D. immitis microfilariae; 100 µM, 96 h): 10% and 12% and 15%
Mean completely Immotile (%) (D. immitis microfilariae; 100 µM, 120 h): 17%
Completely Immotile Microfilariae (%) (D. immitis microfilariae; 100 µM, 120 h): 15% and 17% and 19%
Mean completely Immotile (%) (D. immitis microfilariae; 150 µM, 0 h): 0%
Completely Immotile Microfilariae (%) (D. immitis microfilariae; 150 µM, 0 h): 0%
Mean completely Immotile (%) (D. immitis microfilariae; 150 µM, 24 h): 4.67%
Completely Immotile Microfilariae (%) (D. immitis microfilariae; 150 µM, 24 h): 5% (2×) and 4%
Mean completely Immotile (%) (D. immitis microfilariae; 150 µM, 48 h): 8.67%
Completely Immotile Microfilariae (%) (D. immitis microfilariae; 150 µM, 48 h): 9% and 6% and 11%
Mean completely Immotile (%) (D. immitis microfilariae; 150 µM, 72 h): 12.33%
Completely Immotile Microfilariae (%) (D. immitis microfilariae; 150 µM, 72 h): 12% and 11% and 14%
Mean completely Immotile (%) (D. immitis microfilariae; 150 µM, 96 h): 14.67%
Completely Immotile Microfilariae (%) (D. immitis microfilariae; 150 µM, 96 h): 13% and 14% and 17%
Mean completely Immotile (%) (D. immitis microfilariae; 150 µM, 120 h): 21.33%
Completely Immotile Microfilariae (%) (D. immitis microfilariae; 150 µM, 120 h): 20% and 21% and 23%
Mean completely Immotile (%) (D. immitis microfilariae; 200 µM, 0 h): 0%
Completely Immotile Microfilariae (%) (D. immitis microfilariae; 200 µM, 0 h): 0%
Mean completely Immotile (%) (D. immitis microfilariae; 200 µM, 24 h): 6.67%
Completely Immotile Microfilariae (%) (D. immitis microfilariae; 200 µM, 24 h): 7% (2×) and 6%
Mean completely Immotile (%) (D. immitis microfilariae; 200 µM, 48 h): 10.67%
Completely Immotile Microfilariae (%) (D. immitis microfilariae; 200 µM, 48 h): 12% and 9% and 11%
Mean completely Immotile (%) (D. immitis microfilariae; 200 µM, 72 h): 14.33%
Completely Immotile Microfilariae (%) (D. immitis microfilariae; 200 µM, 72 h): 16% (2×) and 11%
Mean completely Immotile (%) (D. immitis microfilariae; 200 µM, 96 h): 18.67%
Completely Immotile Microfilariae (%) (D. immitis microfilariae; 200 µM, 96 h): 19% and 17% and 20%
Mean completely Immotile (%) (D. immitis microfilariae; 200 µM, 120 h): 25.33%
Completely Immotile Microfilariae (%) (D. immitis microfilariae; 200 µM, 120 h): 24% and 26% (2×)
effect on microfilariae (D. immitis microfilariae): insignificant effect
Mean Percent Inhibition (DiMT protein; 40 µM): 32.1% and 22.9% and 27.7%
Mean Percent Inhibition, Average (DiMT protein; 40 µM): 27.6%
Mean Percent Inhibition (DiMT protein; 80 µM): 63.8% and 49.7% and 46.2%
Mean Percent Inhibition, Average (DiMT protein; 80 µM): 53.2%
Mean Percent Inhibition (DiMT protein; 120 µM): 65.7% and 71.6% and 62.3%
Mean Percent Inhibition, Average (DiMT protein; 120 µM): 66.5%
Mean Percent Inhibition (DiMT protein; 140 µM): 72.8% and 64.4% and 72.4%
Mean Percent Inhibition, Average (DiMT protein; 140 µM): 69.9%
Mean Percent Inhibition (DiMT protein; 180 µM): 81.5% and 69.4% and 74.5%
Mean Percent Inhibition, Average (DiMT protein; 180 µM): 75.1%
IC50 (DiMT protein): 76.2 ± 1.7 µM
